Read-outs that look alike come from different tables or passages of the source.
Tests used:
[1] = Stability of Ewha-18278 in rat plasma (short-term, long-term, freeze-thaw, post-preparative); format: in vitro ADME; conditions: n = 3; for Stability 37 °C, 6 h / Stability Freeze-thaw / Stability RT, 6 h / Stability −20 °C, 4-W / Stability −70 °C, 4-W: rat plasma
NOX2 = test system: NOX2; design: method as in PMID 26975635; conditions: in vitro; cited from earlier work
NOX1 = test system: NOX1; design: method as in PMID 26975635; conditions: in vitro; cited from earlier work
[2] = test system: ovariectomized (OVX) mice; design: method as in PMID 26975635; conditions: orally 10–20 mg/kg daily for 4 weeks; cited from earlier work
[3] = Solubility (aqueous / in co-solvent formulation); format: physicochemical
[4] = Pharmacokinetics of Ewha-18278 after IV and oral administration to rats (non-compartmental analysis, HPLC/UV plasma assay); format: in vivo, Sprague-Dawley rats; conditions: for F (absolute BA): PO 20 mg/kg vs IV 2 mg/kg
Description: The plasma sample (50 µL) with IS was deproteinized with twice the volume of acetonitrile (ACN). All HPLC analyses were performed on an Agilent 1100 series system (Palo Alto, CA, USA). Capcell-pak C18 MG120 column (3.0 mm × 250 mm, 5 µm, Shiseido, Tokyo, Japan) was the analytical column used. All the prepared samples were eluted with acetonitrile and water (65:35, v/v) containing 0.1% trifluoroacetic acid (TFA) at a flow rate of 0.5 mL/min. The sample reservoir and column oven were maintained at 4 °C and 40 °C, respectively. UV detection was performed at 284 nm and the injection volume was 30 µL.
All the animal procedures were approved by the Institutional Animal Care and Use Committee of Ewha Womans University (IACUC) (No. 2010-2-5, approved on 19 February 2010), Seoul, Korea. Seven-week-old male Sprague-Dawley rats (200–240 g) were used for the PK experiments.
The DMSO-based formulations were comprised of 10% DMSO and 90% saline-based solution (25% Cremophor® EL, 5% polyethylene glycol 400, 0.5% Tween® and 69.5% saline, v/v/v/v). The diazepam injection-based formulation applicable to humans was composed of 40% propylene glycol, 10% dehydrated ethanol, and 50% water (v/v/v). […] These concentrations were utilized to examine the effect of concentration on the PK parameters of the compound.
The rats were divided into five groups on the day of the drug administration. Two groups (n = 6) were administered the DMSO-based formulation: IV injection of 2 mg/kg and oral administration of 20 mg/kg. Three groups (n = 5–6) were treated with the diazepam injection-based formulation: IV injection of 2 mg/kg and oral administration of 20 mg/kg in two different concentrations (1 mg/mL and 2 mg/mL). The common carotid artery was catheterized for blood sampling. Blood sampling (0.2 mL) was conducted at 0, 0.033, 0.083, 0.25, 0.5, 1, 2, 4, 6, 10, and 24 h for the IV group and 0, 0.083, 0.25, 0.5, 1, 2, 4, 6, 10, 24, and 34 h for PO groups. Plasma samples mixed with IS (Ewha-18212) were analyzed by the HPLC system.

NOX4 = test system: NOX4; design: method as in PMID 26975635; conditions: in vitro; cited from earlier work
[5] = test system: bone marrow-derived macrophages (BMMs); design: method as in PMID 26975635; conditions: in vitro; cited from earlier work
[6] = IV 2 mg/kg, diazepam injection-based formulation (1 mg/mL)
[7] = male, Sprague-Dawley, rat, plasma, iv, 2 mg/kg, IV 2 mg/kg, DMSO formulation (1 mg/mL)
[8] = male, Sprague-Dawley, rat, plasma, po, 20 mg/kg, PO 20 mg/kg, DMSO formulation (2 mg/mL)
[9] = male, Sprague-Dawley, rat, plasma, po, 20 mg/kg, PO 20 mg/kg, diazepam injection-based formulation (2 mg/mL)

CCCc1c(-c2ccccc2)nn(-c2ccccn2)c1O [Ewha-18278]
Stability Post-prep. ([1]; high QC concentration): 103%
Stability Post-prep. ([1]; low QC concentration): 103%
Stability 37 °C, 6 h ([1]; high QC concentration): 87.5%
Stability Freeze-thaw ([1]; high QC concentration): 86.0%
Stability RT, 6 h ([1]; high QC concentration): 93.4%
Stability −20 °C, 4-W ([1]; high QC concentration): 90.4%
Stability −70 °C, 4-W ([1]; high QC concentration): 97.5%
Stability 37 °C, 6 h ([1]; low QC concentration): 89.0%
Stability Freeze-thaw ([1]; low QC concentration): 90.4%
Stability −20 °C, 4-W ([1]; low QC concentration): 99.4%
Stability −70 °C, 4-W ([1]; low QC concentration): 100%
Stability RT, 6 h ([1]; low QC concentration, vs freshly prepared QC samples): 94.5%
Effect on NOX2 activity (NOX2): directly interfering with the activity
Effect on NOX1 activity (NOX1): directly interfering with the activity
Bone strength / cortical bone thickness [2]: induced bone strength by increasing cortical bone thickness
Dissolution in co-solvents ([3]; mixture of propylene glycol, dehydrated ethanol, and water): completely dissolved
Solubility of the hydrochloride salt relative to free form #2 ([3]; salt formation): strongly enhanced the solubility
Aqueous solubility ([3]; water): highly insoluble in water
Clt ([4]; IV 2 mg/kg, DMSO formulation (1 mg/mL)): 0.216 ± 0.084 L/h
Clt [4, 6]: 0.250 ± 0.072 L/h
Vd [4, 6]: 1.52 ± 1.17 L
F (absolute BA) ([4]; DMSO formulation (2 mg/mL)): 62.4%
F (absolute BA) ([4]; diazepam injection-based formulation (1 mg/mL)): 67.2%
F (absolute BA) ([4]; diazepam injection-based formulation (2 mg/mL)): 43.0%
Clt/F ([4]; PO 20 mg/kg, DMSO formulation (2 mg/mL)): 0.327 ± 0.164 L/h
AUCinf ([4]; PO 20 mg/kg, DMSO formulation (2 mg/mL), 20 mg/kg): 19.4 ± 8.69 µg·h/mL
BA (absolute), all groups / both formulations ([4]; PO 20 mg/kg, DMSO-based and diazepam injection-based formulations): more than 40%
Clt/F ([4]; PO 20 mg/kg, diazepam injection-based formulation (1 mg/mL)): 0.531 ± 0.370 L/h
Clt/F ([4]; PO 20 mg/kg, diazepam injection-based formulation (2 mg/mL)): 0.726 ± 0.553 L/h
Decrease of PK parameters (AUCinf, t1/2, absolute BA) in the higher concentration group ([4]; PO 20 mg/kg, diazepam injection-based formulation, 2 mg/mL vs 1 mg/mL): ~35%
Time of second peak in plasma concentration-time profile ([4]; PO 20 mg/kg, diazepam injection-based formulation, high concentration (2 mg/mL)): 10 h
Time of second peak in plasma concentration-time profile ([4]; PO 20 mg/kg, diazepam injection-based formulation, low concentration (1 mg/mL)): 6 h
Increase of AUCinf at low vs high concentration ([4]; PO, diazepam injection-based formulation, 1 mg/mL compared to 2 mg/mL): 1.6 fold
C0 ([4]; male, Sprague-Dawley, rat, plasma, IV 2 mg/kg, DMSO formulation (1 mg/mL)): 7.24 ± 2.45 µg/mL
Vd ([4]; male, Sprague-Dawley, rat, plasma, IV 2 mg/kg, DMSO formulation (1 mg/mL), read-out: Vd): 0.785 ± 0.154 L
AUC(0-inf) [4, 7]: 2.86 ± 1.09 µg·h/mL
half-life [4, 7]: 3.07 ± 2.01 h
AUC(0-inf) [4, 8]: 17.9 µg·h/mL
Cmax [4, 8]: 4.68 ± 2.11 µg/mL
Tmax [4, 8]: 0.249 ± 0.166 h
Vd/F [4, 8]: 6.06 ± 2.32 L
half-life [4, 8]: 14.2 ± 4.76 h
Vd/F ([4]; male, Sprague-Dawley, rat, plasma, po, 20 mg/kg, PO 20 mg/kg, diazepam injection-based formulation (1 mg/mL)): 9.72 ± 5.17 L
AUC(0-inf) [4, 9]: 9.25 ± 4.42 µg·h/mL
Cmax [4, 9]: 6.24 ± 2.02 µg/mL
Tmax [4, 9]: 0.083 h
Vd/F [4, 9]: 7.9 ± 3.01 L
half-life [4, 9]: 8.96 ± 2.92 h
Effect on NOX4 activity (NOX4): directly interfering with the activity
Effect on responses of BMMs to RANKL [5]: inhibited

— publication PMC6781499 (Pharmaceutics, 2019)
